According to patent publication US20140005163A1 (NOVARTIS AG, priority 2010, published 2014):
Values after ≈ are worked out from the molar mass of the structure shown. Like-named read-outs stand apart in the source and are kept apart here.

Legend:
[1] = Solubility at pH 6.8; assay type: physicochemical
From the text: The physicochemical properties of relevance for the absorption of the compound, such as the solubility and the membrane permeability, especially at a pH close to neutral pH can be measured using the procedure as described by L. ZHOU et al. in JOURNAL OF PHARMACEUTICAL SCIENCES, VOL. 96, NO. 11, p. 3052-3071 (2007) for the solubility at pH 6.8 and the procedure as described by F. Wohnsland and B. Faller in Journal of Medicinal Chemistry Vol 44, p. 923-930 (2001) for the Parallel Artificial Membrane Permeability Assay (PAMPA) at pH 6.8.

[2] = biological target: T1, PI3K delta (Homo sapiens, UniProt O00329); assay: PI3K delta kinase assay (Kinase-Glo luminescence); assay type: biochemical
T1 construct: for the full-length p110-d subunit are generated and fused by overlapping PCR; p85(iSH2) fusion partner (see partner chain) (N); His tag (C); made in house; host or cells: baculovirus; Tn5 (Trichoplusia ni) or TiniPro insect cells
T1 sequence (O00329 with tags, fused parts or gaps limits assumed): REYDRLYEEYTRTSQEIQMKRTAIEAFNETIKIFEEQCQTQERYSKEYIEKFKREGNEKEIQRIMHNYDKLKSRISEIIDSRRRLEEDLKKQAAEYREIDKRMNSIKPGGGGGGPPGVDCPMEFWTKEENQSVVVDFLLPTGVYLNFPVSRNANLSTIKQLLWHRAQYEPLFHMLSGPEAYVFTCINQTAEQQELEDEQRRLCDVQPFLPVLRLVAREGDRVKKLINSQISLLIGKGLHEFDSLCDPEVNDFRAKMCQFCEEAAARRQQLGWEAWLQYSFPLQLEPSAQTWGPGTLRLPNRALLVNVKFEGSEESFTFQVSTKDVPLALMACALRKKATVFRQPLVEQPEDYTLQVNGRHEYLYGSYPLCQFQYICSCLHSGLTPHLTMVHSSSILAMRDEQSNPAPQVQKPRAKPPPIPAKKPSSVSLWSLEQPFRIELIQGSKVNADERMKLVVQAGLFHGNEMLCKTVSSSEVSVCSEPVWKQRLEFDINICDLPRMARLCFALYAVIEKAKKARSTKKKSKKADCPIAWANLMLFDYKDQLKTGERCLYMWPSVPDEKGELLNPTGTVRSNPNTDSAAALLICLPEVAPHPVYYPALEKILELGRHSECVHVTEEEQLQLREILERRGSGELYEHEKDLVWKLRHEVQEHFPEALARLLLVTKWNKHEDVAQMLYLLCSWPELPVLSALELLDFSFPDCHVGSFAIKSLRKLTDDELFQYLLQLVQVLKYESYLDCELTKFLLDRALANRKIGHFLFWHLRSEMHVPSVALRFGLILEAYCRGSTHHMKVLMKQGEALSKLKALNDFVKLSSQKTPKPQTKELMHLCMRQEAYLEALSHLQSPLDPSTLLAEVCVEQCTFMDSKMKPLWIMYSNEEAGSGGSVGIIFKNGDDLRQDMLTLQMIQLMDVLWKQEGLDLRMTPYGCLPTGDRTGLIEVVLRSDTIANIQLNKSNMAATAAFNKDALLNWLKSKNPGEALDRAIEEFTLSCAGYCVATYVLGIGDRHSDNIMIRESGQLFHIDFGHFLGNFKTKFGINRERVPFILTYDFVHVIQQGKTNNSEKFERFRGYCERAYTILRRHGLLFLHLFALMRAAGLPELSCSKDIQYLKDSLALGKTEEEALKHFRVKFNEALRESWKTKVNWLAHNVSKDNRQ
Method: (§1) In a more preferred assay, the kinase reaction is performed in a final volume of 10 μL per well of a low volume non binding CORNING, 384 well black plate (Cat. No. #3676). The final concentrations of ATP and phosphatidyl inositol (PI) in the assay are 1 μM and 10 μg/mL respectively. The reaction is started by the addition of ATP.
(§2) The components of the assay are added per well as follows:
(§3) […] in 90% DMSO per well, in columns 1-20, 8 concentrations (1/3 and 1/3.33 serial dilution step) in single. • Low control: […] of 90% DMSO in half the wells of columns 23-24 (0.45% in final). • High control: […] of reference compound (e.g. compound of Example 7 in WO 2006/122806) in the other half of columns 23-24 (2.5 μM in final). • Standard: […] of reference compound as just mentioned diluted as the test compounds in columns 21-22 • 20 mL ‘buffer’ are prepared per assay: • 200 μL of 1M TRIS HCl pH7.5 (10 mM in final) • 60 μL of 1M MgCl2 (3 mM in final) • 500 μL of 2M NaCl (50 mM in final) • 100 μL of 10% CHAPS (0.05% in final) • 200 μL of 100 mM DTT (1 mM in final) • 18.94 mL of nanopure water • 10 mL ‘PI’ are prepared per assay: • 200 μL of 1 mg/ml L-alpha-Phosphatidylinositol (Liver Bovine, Avanti Polar Lipids Cat. No. 840042C MW=909.12) prepared in 3% OctylGlucoside (10 μg/ml in final) • 9.8 mL of ‘buffer’ • 10 mL ‘ATP’ are prepared per assay: • 6.7 μL of 3 mM stock of ATP giving a final concentration of 1 μM per well • 10 mL of ‘buffer’ • 2.5 mL of each PI3K construct are prepared per assay in ‘PI’ with the following final concentration: • 10 nM PI3K alfa EMV B1075 • 25 nM beta EMV BV949 • 10 nM delta EMV BV1060 • 150 nM gamma EMV BV950 • 5 μL of ‘PI/PI3K’ are added per well. • 5 μl ‘ATP’ are added per well to start the reaction. • The plates are then incubated at room temperature for 60 minutes (alfa, beta, delta) or 120 minutes (gamma). • The reaction is terminated by the addition of 10 μL Kinase-Glo (Promega Cat. No. #6714). • The assay plates are read after 10 minutes in Synergy 2 reader (BioTek, Vermont USA) with an integration time of 100 milliseconds and sensitivity set to 191. • Output: The High control is around 60'000 counts and the Low control is 30'000 or lower • This luminescence assay gives a useful Z′ ratio between 0.4 and 0.7
PI3Kγ BV-1060 p85(iSH2)-Gly Linker-p110d(Full-Length)-C-Term his Tag
(§4) IC50 is determined by a four parameter curve fitting routine that comes along with “excel fit”. […] Alternatively, IC50 values are calculated using idbsXLfit model 204, which is a 4 parameter logistic model.

[3] = tested on: PKB Ser473 phosphorylation in Rat1-myr-HA-p110 delta cells; assay: Reverse protein array assay, PKB Ser473 phosphorylation in Rat1-myr-p110 delta cells; assay type: cell-based; details: read-out: p-PKB IC50
How it was run: (§5)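 Cells: Rat1-myr-HA-p110 alpha/beta/delta, seeded ≥20 h. Lysis on ice 10 min; reverse-phase protein array, 4 lysate dilutions; fluorescence read, relative intensity.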

[4] = tested on: PKB Ser473 phosphorylation in Rat1-myr-HA-p110 alpha cells; assay: Reverse protein array assay, PKB Ser473 phosphorylation in Rat1-myr-p110 alpha cells; assay type: cell-based; details: 0.5 h, pAkt Ser473, 30 minutes compound incubation, read-out: p-PKB IC50
How it was run: as §5

[5] = tested on: PKB Ser473 phosphorylation in Rat1-myr-HA-p110 beta cells; assay: Reverse protein array assay, PKB Ser473 phosphorylation in Rat1-myr-p110 beta cells; assay type: cell-based; details: 0.5 h, pAkt Ser473, 30 minutes incubation, read-out: p-PKB IC50
How it was run: as §5

[6] = biological target: T2, PI3K beta (Homo sapiens, UniProt P42338); assay: PI3K beta kinase assay (Kinase-Glo luminescence); assay type: biochemical
T2 construct: for the full-length p110-b subunit are generated and fused by overlapping PCR; p85(iSH2) fusion partner (see partner chain) (N); His tag (C); made in house; host or cells: baculovirus; Tn5 (Trichoplusia ni) or TiniPro insect cells
T2 sequence (P42338 with tags, fused parts or gaps limits assumed): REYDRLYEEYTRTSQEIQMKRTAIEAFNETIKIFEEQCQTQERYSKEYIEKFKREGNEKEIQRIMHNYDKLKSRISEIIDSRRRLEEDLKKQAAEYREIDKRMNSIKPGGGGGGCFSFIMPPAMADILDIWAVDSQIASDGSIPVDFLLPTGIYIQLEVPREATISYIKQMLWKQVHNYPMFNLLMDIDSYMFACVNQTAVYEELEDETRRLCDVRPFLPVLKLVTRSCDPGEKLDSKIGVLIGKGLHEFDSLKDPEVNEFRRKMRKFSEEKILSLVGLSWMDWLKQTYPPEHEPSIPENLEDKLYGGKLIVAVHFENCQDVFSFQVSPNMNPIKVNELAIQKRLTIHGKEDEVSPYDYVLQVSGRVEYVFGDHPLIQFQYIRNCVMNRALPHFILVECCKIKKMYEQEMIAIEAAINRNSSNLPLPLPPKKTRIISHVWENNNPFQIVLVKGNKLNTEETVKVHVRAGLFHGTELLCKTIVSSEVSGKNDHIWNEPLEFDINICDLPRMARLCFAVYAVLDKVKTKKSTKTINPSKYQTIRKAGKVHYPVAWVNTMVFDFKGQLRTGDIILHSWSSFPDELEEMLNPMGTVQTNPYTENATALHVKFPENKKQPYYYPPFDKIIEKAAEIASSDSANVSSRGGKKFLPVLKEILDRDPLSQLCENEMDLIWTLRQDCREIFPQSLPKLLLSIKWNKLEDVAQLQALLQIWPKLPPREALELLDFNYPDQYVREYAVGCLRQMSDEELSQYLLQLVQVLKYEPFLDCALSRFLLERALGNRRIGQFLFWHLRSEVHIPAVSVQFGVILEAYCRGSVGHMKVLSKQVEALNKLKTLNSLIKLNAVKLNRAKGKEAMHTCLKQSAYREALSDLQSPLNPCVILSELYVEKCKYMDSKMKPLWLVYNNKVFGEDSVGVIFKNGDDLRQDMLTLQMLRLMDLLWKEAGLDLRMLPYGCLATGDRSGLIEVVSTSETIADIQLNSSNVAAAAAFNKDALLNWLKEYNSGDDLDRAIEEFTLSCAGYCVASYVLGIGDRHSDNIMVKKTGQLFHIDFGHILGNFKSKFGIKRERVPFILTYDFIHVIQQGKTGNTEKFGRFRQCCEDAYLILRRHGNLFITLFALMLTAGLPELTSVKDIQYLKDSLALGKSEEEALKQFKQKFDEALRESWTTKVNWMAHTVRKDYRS
Method: as §1, §2, §3
PI3Kβ BV-949 p85(iSH2)-Gly Linker-p110b(Full-Length)-C-Term his Tag
as §4

[7] = biological target: T3, PI3K alpha (Homo sapiens, UniProt P42336); assay: PI3K alpha kinase assay (Kinase-Glo luminescence); assay type: biochemical
T3 construct: p85(iSH2) fusion partner (see partner chain) (N); His tag (C); made in house; host or cells: baculovirus; Tn5 (Trichoplusia ni) or TiniPro insect cells
T3 sequence (P42336 with tags, fused parts or gaps limits assumed): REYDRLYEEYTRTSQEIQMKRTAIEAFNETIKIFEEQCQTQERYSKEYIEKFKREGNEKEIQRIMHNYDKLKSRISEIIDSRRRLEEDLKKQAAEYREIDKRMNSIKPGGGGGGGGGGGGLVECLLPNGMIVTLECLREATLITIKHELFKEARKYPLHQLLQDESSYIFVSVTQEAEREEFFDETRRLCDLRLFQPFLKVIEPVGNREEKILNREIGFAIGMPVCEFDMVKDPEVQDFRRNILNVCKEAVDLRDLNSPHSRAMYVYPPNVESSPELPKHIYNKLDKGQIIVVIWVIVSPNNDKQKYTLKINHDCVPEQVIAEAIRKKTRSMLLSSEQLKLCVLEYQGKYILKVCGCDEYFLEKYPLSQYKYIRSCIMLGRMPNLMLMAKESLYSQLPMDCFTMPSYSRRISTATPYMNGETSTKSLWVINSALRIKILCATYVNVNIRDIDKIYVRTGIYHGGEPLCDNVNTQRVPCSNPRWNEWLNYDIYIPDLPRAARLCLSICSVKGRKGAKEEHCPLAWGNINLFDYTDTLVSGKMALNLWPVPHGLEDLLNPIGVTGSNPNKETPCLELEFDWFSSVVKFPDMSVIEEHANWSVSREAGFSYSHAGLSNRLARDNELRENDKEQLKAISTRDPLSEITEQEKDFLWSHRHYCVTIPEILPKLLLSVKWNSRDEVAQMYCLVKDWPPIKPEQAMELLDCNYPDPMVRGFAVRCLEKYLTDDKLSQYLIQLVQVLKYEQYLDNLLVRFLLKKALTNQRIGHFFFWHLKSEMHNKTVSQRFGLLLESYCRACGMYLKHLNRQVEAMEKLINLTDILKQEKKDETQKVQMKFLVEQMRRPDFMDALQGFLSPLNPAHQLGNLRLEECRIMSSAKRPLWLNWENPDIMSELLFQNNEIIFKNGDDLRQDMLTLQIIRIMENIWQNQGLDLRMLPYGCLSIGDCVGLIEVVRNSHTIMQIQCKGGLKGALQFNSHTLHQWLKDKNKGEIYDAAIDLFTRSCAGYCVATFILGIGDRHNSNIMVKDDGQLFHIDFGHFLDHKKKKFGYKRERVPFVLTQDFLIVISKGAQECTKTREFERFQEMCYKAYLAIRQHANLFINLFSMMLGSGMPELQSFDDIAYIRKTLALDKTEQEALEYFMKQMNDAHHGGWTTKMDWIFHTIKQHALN
Method: as §1, §2, §3
Two different constructs, BV 1052 and BV 1075, are used to generate the PI3 Kinase a proteins for compound screening.
as §4

[8] = tested on: S6 Ribosomal Protein phosphorylation Ser235/236 in TSC1 null mouse embryo fibroblast (MEF) cells; assay: Reverse protein array assay, S6 Ribosomal Protein phosphorylation Ser235/236 in TSC1 null MEF cells; assay type: cell-based; details: 1 h, pS6 ribosomal protein Ser235/236, 60 minutes incubation, read-out: p-S6 IC50
How it was run: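 TSC1−/− MEFs, seeded and held ≥20 h at 37 °C/5% CO2, were exposed to 8-step serial compound dilutions (0.02% DMSO final; DMSO vehicle control) for 60 min at 37 °C. Cells were then lysed on ice for 10 min and lysates spotted onto reverse protein array chips.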

[9] = biological target: T4, mTOR (Homo sapiens, UniProt P42345); assay: Biochemical assay for m-TOR by TR-FRET; details: 8 μM ATP, 400 nM GFP-4EBP1, 0.5 nM mTOR
T4 construct: purchased Invitrogen Corporation (Carlsbad/CA, USA) PV4753
T4 sequence (P42345 1360-2549 limits assumed): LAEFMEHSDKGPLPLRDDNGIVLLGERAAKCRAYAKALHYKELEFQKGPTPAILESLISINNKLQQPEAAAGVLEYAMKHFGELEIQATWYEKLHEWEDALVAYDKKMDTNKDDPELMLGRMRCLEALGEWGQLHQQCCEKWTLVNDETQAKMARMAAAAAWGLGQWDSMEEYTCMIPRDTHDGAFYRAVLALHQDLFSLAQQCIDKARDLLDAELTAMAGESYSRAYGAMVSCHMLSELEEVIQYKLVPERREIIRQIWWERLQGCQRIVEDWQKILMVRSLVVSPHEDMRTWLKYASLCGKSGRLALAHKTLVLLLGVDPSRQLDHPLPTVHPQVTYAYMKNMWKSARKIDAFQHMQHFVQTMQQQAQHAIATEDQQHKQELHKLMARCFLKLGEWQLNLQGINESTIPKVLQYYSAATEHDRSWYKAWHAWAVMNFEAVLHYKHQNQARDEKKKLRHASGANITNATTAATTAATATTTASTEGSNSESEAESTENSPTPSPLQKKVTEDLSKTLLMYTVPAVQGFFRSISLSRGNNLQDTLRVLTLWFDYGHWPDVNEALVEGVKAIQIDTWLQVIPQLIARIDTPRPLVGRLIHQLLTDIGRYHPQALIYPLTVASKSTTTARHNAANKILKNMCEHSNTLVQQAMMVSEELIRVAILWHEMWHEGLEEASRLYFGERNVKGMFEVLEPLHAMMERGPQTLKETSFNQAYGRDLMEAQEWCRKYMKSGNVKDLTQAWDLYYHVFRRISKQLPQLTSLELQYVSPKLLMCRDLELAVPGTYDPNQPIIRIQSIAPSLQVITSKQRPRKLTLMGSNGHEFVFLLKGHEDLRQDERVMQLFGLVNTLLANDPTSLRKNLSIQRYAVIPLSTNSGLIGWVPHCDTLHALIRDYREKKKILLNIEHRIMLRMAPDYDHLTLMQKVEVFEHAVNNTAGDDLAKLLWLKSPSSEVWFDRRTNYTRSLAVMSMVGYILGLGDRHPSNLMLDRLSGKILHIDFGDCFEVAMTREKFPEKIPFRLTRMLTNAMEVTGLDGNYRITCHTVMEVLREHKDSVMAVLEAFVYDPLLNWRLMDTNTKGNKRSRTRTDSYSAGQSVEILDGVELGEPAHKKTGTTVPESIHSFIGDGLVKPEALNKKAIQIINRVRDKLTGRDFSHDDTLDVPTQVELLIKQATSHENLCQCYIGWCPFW
How it was run: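 mTOR (0.5 nM final) phosphorylated GFP-4EBP1 (400 nM final) with ATP (8 μM final) at rt in 50 mM HEPES pH 7.5, 10 mM MnCl2, 50 mM NaCl, 1 mM EGTA, 1 mM DTT. EDTA stop with Tb3+-anti-p4EBP1 [pThr46] antibody (0.5 nM); TR-FRET read 15 min later.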

[10] = pH 6.8, aqueous buffer, thermodynamic from solid, read-out: solubility

## Cn1nccc1-n1c(=O)n(C)c2cnc3ccc(-c4ccnc(F)c4)cc3c21 [Example 11, 8-(2-Fluoro-pyridin-4-yl)-3-methyl-1-(2-methyl-2H-pyrazol-3-yl)-1,3-dihydro-imidazo[4,5-c]quinolin-2-one]
[1]; pH 6.8
  solubility: 2 µg/mL (≈ 5.34 µM)
[2]
  IC50: 810 nM

## COc1ccc(-c2ccc3ncc4[nH]c(=O)n(-c5cn(C)nc5C)c4c3c2)cc1OC [Example 111, 8-(3,4-Dimethoxy-phenyl)-1-(1,3-dimethyl-1H-pyrazol-4-yl)-1,3-dihydro-imidazo[4,5-c]quinolin-2-one]
[3]
  IC50: 18 nM
[4]
  IC50: 10 nM
[5]
  IC50: 13 nM
[6]
  IC50: 41 nM
[2]
  IC50: 50 nM
[7]
  IC50: 27 nM
[8]
  IC50: 3 nM

## Cc1nn(C(C)C)cc1-n1c(=O)n(C)c2cnc3ccc(-c4ccccn4)cc3c21 [Example 113, 1-(1-Isopropyl-3-methyl-1H-pyrazol-4-yl)-3-methyl-8-pyridin-2-yl-1,3-dihydro-imidazo[4,5-c]quinolin-2-one]
[4]
  IC50: 818 nM
[1]; [10]
  solubility: 30 µg/mL (≈ 75.3 µM)

## CCNc1cc(-c2ccc3ncc4c(c3c2)n(-c2cn(C)nc2C)c(=O)n4C)cnc1Cl [Example 153.2, 8-(6-Chloro-5-ethylamino-pyridin-3-yl)-1-(1,3-dimethyl-1H-pyrazol-4-yl)-3-methyl-1,3-dihydro-imidazo[4,5-c]quinolin-2-one]
[3]
  IC50: 5 nM
[4]
  IC50: < 5 nM
[9]
  IC50: < 3 nM
[5]
  IC50: < 5 nM
[6]
  IC50: 9 nM
[2]
  IC50: 3 nM
[7]
  IC50: 15 nM

## CCNc1cc(-c2ccc3ncc4c(c3c2)n(-c2c(C)noc2C)c(=O)n4C)cnc1F [Example 154.2, 1-(3,5-Dimethyl-isoxazol-4-yl)-8-(5-ethylamino-6-fluoro-pyridin-3-yl)-3-methyl-1,3-dihydro-imidazo[4,5-c]quinolin-2-one]
[3]
  IC50: 458 nM
[4]
  IC50: 253 nM
[5]
  IC50: 245 nM
[6]
  IC50: 76 nM
[2]
  IC50: 80 nM
[7]
  IC50: 173 nM
[8]
  IC50: 39 nM

## CCOCc1cc(-c2ccc3ncc4c(c3c2)n(-c2c(C)nn(C)c2C)c(=O)n4C)cnc1N [Example 166.5, 8-(6-Amino-5-ethoxymethyl-pyridin-3-yl)-3-methyl-1-(1,3,5-trimethyl-1H-pyrazol-4-yl)-1,3-dihydro-imidazo[4,5-c]quinolin-2-one]
[3]
  IC50: 833 nM
[4]
  IC50: 301 nM
[6]
  IC50: 222 nM
[2]
  IC50: 33 nM
[7]
  IC50: 28 nM
[8]
  IC50: 91.7 nM

## CNC(=O)Cc1cncc(-c2ccc3ncc4c(c3c2)n(-c2cn(C)nc2C)c(=O)n4C)c1 [Example 228, 2-{5-[1-(1,3-Dimethyl-1H-pyrazol-4-yl)-3-methyl-2-oxo-2,3-dihydro-1H-imidazo[4,5-c]quinolin-8-yl]-pyridin-3-yl}-N-methyl-acetamide]
[1]; [10]
  solubility: > 441 µg/mL
[2]
  IC50: 166 nM
[7]
  IC50: 85 nM

## Cc1nn(C)cc1-n1c(=O)n(C)c2cnc3ccc(-c4cncc(C(C)(C)CO)c4)cc3c21 [Example 229, 1-(1,3-Dimethyl-1H-pyrazol-4-yl)-8-[5-(2-hydroxy-1,1-dimethyl-ethyl)-pyridin-3-yl]-3-methyl-1,3-dihydro-imidazo[4,5-c]quinolin-2-one]
[3]
  IC50: 235 nM
[4]
  IC50: 279 nM
[5]
  IC50: 275 nM
[6]
  IC50: 8 nM
[2]
  IC50: 5 nM
[7]
  IC50: 8 nM
[8]
  IC50: 11 nM

## CC(=O)NCc1cncc(-c2ccc3ncc4c(c3c2)n(-c2cn(C)nc2C)c(=O)n4C)c1 [Example 231, N-{5-[1-(1,3-Dimethyl-1H-pyrazol-4-yl)-3-methyl-2-oxo-2,3-dihydro-1H-imidazo[4,5-c]quinolin-8-yl]-pyridin-3-ylmethyl}-acetamide]
[9]
  IC50: 542 nM
[1]; [10]
  solubility: 413 µg/mL (≈ 935 µM)
[7]
  IC50: 405 nM

## CNc1ncc(-c2ccc3ncc4c(c3c2)n(-c2cn(C(C)C)nc2C)c(=O)n4C)cc1COC [Example 248.1, 1-(1-Isopropyl-3-methyl-1H-pyrazol-4-yl)-8-(5-methoxymethyl-6-methylamino-pyridin-3-yl)-3-methyl-1,3-dihydro-imidazo[4,5-c]quinolin-2-one]
[3]
  IC50: 73 nM
[4]
  IC50: < 5 nM
[9]
  IC50: 113 nM
[5]
  IC50: 81 nM
[6]
  IC50: 71 nM
[2]
  IC50: 4 nM
[7]
  IC50: 20 nM

## CNc1ncc(-c2ccc3ncc4c(c3c2)n(-c2cn(C)nc2C)c(=O)n4C)cc1COC [Example 248.3, 1-(1,3-Dimethyl-1H-pyrazol-4-yl)-8-(5-methoxymethyl-6-methylamino-pyridin-3-yl)-3-methyl-1,3-dihydro-imidazo[4,5-c]quinolin-2-one]
[3]
  IC50: 25 nM
[4]
  IC50: 9 nM
[9]
  IC50: 15 nM
[5]
  IC50: 25 nM
[6]
  IC50: 23 nM
[2]
  IC50: < 3 nM
[7]
  IC50: 10 nM

## CNc1ncc(-c2ccc3ncc4c(c3c2)n(-c2cn(C)nc2Cl)c(=O)n4C)cc1COC [Example 248.4, 1-(3-Chloro-1-methyl-1H-pyrazol-4-yl)-8-(5-methoxymethyl-6-methylaminopyridin-3-yl)-3-methyl-1,3-dihydro-imidazo[4,5-c]quinolin-2-one]
[3]
  IC50: 8 nM
[4]
  IC50: < 5 nM
[9]
  IC50: 6 nM
[5]
  IC50: 8 nM
[6]
  IC50: 8 nM
[2]
  IC50: < 3 nM
[7]
  IC50: 7 nM
